From patent US11930822B2, “Methylobacterium compositions for fungal disease control” (priority 2017, dated 2024)

Legend:
Pythium lutarium = assay: Greenhouse Pythium assay in soybean, Pythium lutarium; type: in vivo
Method: (§1) A greenhouse experiment was conducted is to evaluate the ability of Methylobacterium strains to suppress Pythium disease in soybean. Methylobacterium treatments were compared to treatments with metalaxyl at various rates to determine if Methylobacterium strains can provide protection beyond and in addition to the level of protection provided by commonly used agronomic seed treatments. The experiment was designed to allow for growth of plants for in the presence of moderate levels of Pythium. spp. to determine impacts on emergence, % dead seed and root rot incidence and severity.
(§2) Pythium inoculants were prepared by mixing 453 g of parboiled rice and 323 mL of distilled water, placing the rice in a vented autoclavable plastic bag, and autoclaving 2×40 minutes with each cycle separated by 24 hours. Rice was inoculated with 3-4-day-old Pythium cultures and incubated for 7-10 days at 23 °C in the dark. The inoculum was then dried for 2 days.
(§3) A 20 ml layer of rice inoculum is placed on soil in cups and additional soil layered on top of the inoculum to position the inoculum approximately 2-3 cm below the seeds to be planted. Water is added to the soil and 10 seeds are planted in each cup. Domes are placed over the cups and the cups are placed in growth chambers with temperature set at 230C, and on a diurnal cycle of 16 h light and 8 h dark. The seeds are incubated for 14 days at 23 °C. For experiments to assess activity of Methylobacterium strains against a consortium of 4 Pythium species, the seeds are incubated for 14 days at 130C and for an additional 7 days at 23 °C.
(§4) Plants are rated when the first trifoliate is fully emerged and open to determine total plant weight, number of seedlings and number of dead seeds. Disease incidence is evaluated as percent plants with rotted roots and disease severity as percent rotted root tissue for each seedling.

Pythium sylvaticum = assay: Greenhouse Pythium assay in soybean, Pythium sylvaticum; type: in vivo
Method: as §1, §2, §3, §4

[1] = system: P. torulosum, P. oopapillum, P. sylvaticum and P. lutarium; assay: Greenhouse Pythium assay in soybean, consortium of 4 Pythium species; type: in vivo, Pythium spp.
Method: as §1, §2, §3, §4
Results from inoculation with a consortium of 4 Pythium species at alternating temperature of 130C and 230C are shown in Tables 35-36 below. The four species, which are all important pathogens of corn and soybean, are P. torulosum, P. oopapillum, P. sylvaticum and P. lutarium.

COCC(=O)N(c1c(C)cccc1C)C(C)C(=O)OC (stereo not drawn) [metalaxyl]
% Dead Seed (Pythium lutarium; Table 33, 0.75 Fl. oz/cwt): 3%
Mean Emergence (%) (Pythium lutarium; Table 33, 0.75 Fl. oz/cwt): 97%
% Dead Seed (Pythium lutarium; Table 33, 1.25 Fl. oz/cwt): 67%
Mean Emergence (%) (Pythium lutarium; Table 33, 1.25 Fl. oz/cwt): 93%
Mean Root Rot Incidence (%) (Pythium lutarium; Table 34, 0.35 Fl. oz/cwt): 95%
Mean Root Rot Severity (%) (Pythium lutarium; Table 34, 0.35 Fl. oz/cwt): 13%
Mean Root Rot Incidence (%) (Pythium lutarium; Table 34, 0.75 Fl. oz/cwt): 95%
Mean Root Rot Severity (%) (Pythium lutarium; Table 34, 0.75 Fl. oz/cwt): 10%
Mean Root Rot Incidence (%) (Pythium lutarium; Table 34, 1.25 Fl. oz/cwt): 93%
Mean Root Rot Severity (%) (Pythium lutarium; Table 34, 1.25 Fl. oz/cwt): 11%
% Dead Seed (Pythium sylvaticum; Table 31, 0.35 Fl. oz/cwt): 18%
Emergence (Pythium sylvaticum; Table 31, 0.35 Fl. oz/cwt): 82
Mean Emergence (%) (Pythium sylvaticum; Table 32, 0.35 Fl. oz/cwt): 78%
Mean Root Rot Severity (%) (Pythium sylvaticum; Table 32, 0.35 Fl. oz/cwt): 17%
Mean Emergence (%) (Pythium sylvaticum; Table 32, 0.75 Fl. oz/cwt): 92%
Mean Root Rot Severity (%) (Pythium sylvaticum; Table 32, 0.75 Fl. oz/cwt): 18%
Mean Emergence (%) (Pythium sylvaticum; Table 32, 1.25 Fl. oz/cwt): 78%
Mean Root Rot Severity (%) (Pythium sylvaticum; Table 32, 1.25 Fl. oz/cwt): 21%
Mean Dead Seed (%) ([1]; Table 35, 0.35 Fl. oz/cwt): 6%
Mean Emergence (%) ([1]; Table 35, 0.35 Fl. oz/cwt): 94%
Mean Dead Seed (%) ([1]; Table 35, 0.75 Fl. oz/cwt): 2%
Mean Emergence (%) ([1]; Table 35, 0.75 Fl. oz/cwt): 100%
Mean Dead Seed (%) ([1]; Table 35, 1.25 Fl. oz/cwt): 2%
Mean Emergence (%) ([1]; Table 35, 1.25 Fl. oz/cwt): 94%
Root Rot INC (%) ([1]; Table 36, 0.35 Fl. oz/cwt): 94%
Root Rot Severity (%) ([1]; Table 36, 0.35 Fl. oz/cwt): 13%
Root Rot INC (%) ([1]; Table 36, 0.75 Fl. oz/cwt): 100%
Root Rot Severity (%) ([1]; Table 36, 0.75 Fl. oz/cwt): 12%
Root Rot INC (%) ([1]; Table 36, 1.25 Fl. oz/cwt): 94%
Root Rot Severity (%) ([1]; Table 36, 1.25 Fl. oz/cwt): 9%
